Data as given in patent publication US9707239B2, “Compounds that modulate oxidative stress” (vTv Therapeutics LLC, priority 2011, dated 2017).
Entries after “also recorded” stand apart in the source; their conditions may differ.

Experiments:
Type in all cases: cell-based, human
[1] = system: TXNRD1; experiment: mRNA expression (Quantigene Plex) in NHLF cells: TXNRD1; conditions: Table 5, 6 h, mRNA normalized to GAPDH, above DMSO treated cells
Procedure: (§1) Secondary growth of NHLF cells were used for all assays. Cell were thawed and then placed into culture in T225 flasks. The cells were grown to 80% confluency and harvested by washing once with HEPES buffered saline solution and then trypsinizing. Equal numbers (7×10^3 cells per well) of NHLF cells were plated in 96 well tissue culture plates (Corning). Cells were incubated overnight in FGM-2 medium prior to exposure to compound. Cells were treated with either DMSO or a compound as described below for 6 h. Preparation of cell lysates was carried out according to instructions using the Quantigene Reagent system 2.0 protocol (Panomics). mRNA induction was detected from cell lysate using the Quantigene Plex 2.0 Assay Kit (Panomics) on the Luminex platform (BIO-RAD). Expression of GAPDH mRNA was used as the internal control for the Quantigen Plex 2.0 Assay. The data in Tables 5 and 6 represents the fold change of target mRNA expression, normalized to control values, above DMSO treated cells.

[2] = system: NQO1; experiment: mRNA expression (Quantigene Plex) in NHLF cells: NQO1; conditions: Table 5, 6 h, mRNA normalized to GAPDH, above DMSO treated cells
Procedure: as §1

[3] = system: Keap1; experiment: HMOX1 induction after Keap1 silencing (shRNA); conditions: NHLF cells, FIG. 6
Procedure: Normal human lung fibroblasts were plated in a 12-well tissue culture dish at 16,000 cells/well and allowed to attach overnight. Regular medium was then replaced with 200 μl of fresh growth medium containing 8 μg/ml hexadimethrine bromide (polybrene). Lentiviral transduction particles were then added in the following amounts: Control shRNA (1.1×10^7 TU/ml, Sigma, cat# SHC002V), 15 μl for an MOI of 10; KEAP-1 shRNA (6.3×10^6 TU/ml, Sigma, cat# SHCLNV-TRCN0000046092), 63 μl for an MOI of 20. After 4 hours in the cell culture incubator, another 200 μl of growth medium was added on top of the original volume. Cells were replenished the next day with fresh complete growth medium and were allowed to recover for 24 hours, after which selection medium was applied (complete medium with 1 μg/ml puromycin).
Another method of testing the role of the Nrf2 regulatory pathway on compound activity is to determine the effect of silencing Keap1 on HMOX1 gene expression. It is known that deleting Keap1 will result in the induction of Nrf2 dependent genes but not, to any significant degree, HMOX1. The proposed explanation for this observation is that HMOX1 requires the concomitant derepression of Bach1 activity and that this event is more dependent on active processes (e.g., heme binding, changes in redox potential of the cell, phosphorylation of Bach1, etc.). We therefore tested the ability of Compound 13 and tool compounds to induce HMOX1 in the presence of silencing of Keap1 in normal human lung fibroblasts.
Normal human lung fibroblasts were tested with DMSO, CoPP, Compound 13, and two derivatives including Compound 4 and Compound 8. An electrophile, Compound 1, was also included in the test set. […] On the other hand, induction of HMOX1 by the electrophile Compound 1 was inhibited.

[4] = system: ICAM; experiment: mRNA expression (Quantigene Plex) in NHLF cells: ICAM; conditions: Table 5, 6 h, mRNA normalized to GAPDH, above DMSO treated cells
Procedure: as §1

[5] = system: HSPA6; experiment: mRNA expression (Quantigene Plex) in NHLF cells: HSPA6; conditions: Table 5, 6 h, mRNA normalized to GAPDH, above DMSO treated cells
Procedure: as §1

[6] = system: HMOX1; experiment: HMOX1 protein expression by immunofluorescence (primary screen, high-content imaging); conditions: NHLF cells
Procedure: NHLF cells were grown to 80% confluency and harvested by washing once with HEPES and then trypsinizing. Equal numbers ([…]) of NHLF cells were plated in 384 well optilux tissue culture (BD) plates. Cells were incubated overnight in FGM-2 medium prior to exposure to compound. Cells were treated with either DMSO or compound for 16 h. Cells were wash 2× with 1×PBS and fix with 4% Paraformaldyhyde for 15 min. The fixed cells were then permeablized with 0.1% Triton X-100 and blocked with 5% BSA in 1× PBS 0.05% Tween-20 for 15 min. HO-1 antibody (abcam) was used for immunostaining at 1:300 dilution in 1% BSA in 1×PBS for 1 hr. Cells were washed 2× with 1×PBS and secondary antibody goat anti-mouse Alexa 488 1:400 dilution (Invitrogen); Hoechst 1:2000 (Invitrogen) in 1% BSA in 1×PBS for 1 hr. The plate was washed 5× with 1×PBS and read at Hoechst Excitation (“Ex.”) 360 Emission (“Em.”) 535; Alexa 488 Ex. 480 Em. 535 using GE InCell 1000. Results were analyzed using GE InCell Analyzer software and represented as the fold change above DMSO treated cells.
A rapid, quantitative screening assay to detect HMOX1 levels in cells based on an immunofluorescent microscopy using an automated high-content imaging system was developed. […] The data are arrayed as in an IR chart with a calculated mean value for the plate and the 3-sigma upper and lower-confidence limits (UCL and LCL). […]

O=C(Nc1ccc2cn[nH]c2c1)c1ccc2[nH]c(Nc3nc4ccccc4s3)nc2c1 [Compound 13, 2-(Benzothiazol-2-ylamino)-1H-benzoimidazole-5-carboxylic acid (1H-indazol-6-yl)-amide]
TXNRD1 (fold induction) [1]: shown to induce | TXNRD1 (fold induction) ([1]; listed as #13): 1.5 fold induction | NQO1 (fold induction) [2]: shown to induce | NQO1 (fold induction) ([2]; listed as #13): 2.2 fold induction | HMOX1 induction in the presence of Keap1 silencing [3]: unaffected in their ability to induce HMOX1 in the presence of Keap1 silencing; also recorded: behaves similarly to CoPP induction | ICAM (fold induction) [4]: nor did it induce | ICAM (fold induction) ([4]; listed as #13): 1.1 fold induction | HSPA6 (fold induction) [5]: did not induce | HSPA6 (fold induction) ([5]; listed as #13): 0.96 fold induction | EC50 ([6]; Homo sapiens, immunofluorescence, dose response, FIG. 2, read-out: effective potency (HMOX1 induction)): < 1000 nM | averaged signal intensity for HMOX1 staining versus upper confidence limit (UCL) ([6]; primary screen, FIG. 1): significantly greater than the upper confidence limit
